According to ChEMBL document CHEMBL1201862, “PubChem BioAssay data set” (2004):
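1) Cells in 96-well plates. 2) Compound, 48 h, 5 concentrations. 3) Linear interpolation between surrounding doses. 4) Unreached endpoint = highest concentration. At the GI50, growth is halved.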 Active and inactive are the calls of the source. Cut-off read from the data, not from the text of the source: active = GI50 up to about 1.1 µM and inactive = higher. Where a SMILES comes first, the peptide text is derived from it. Square brackets hold non-standard residues; d marks the D form. Peptide text beside a SMILES is read from it.

Legend:
Experiment in all cases: NCI anticancer screen, dose series, 48 h
CAKI-1 = system: CAKI-1
HCC 2998 = system: HCC 2998
HL-60 = system: HL-60
IGROV-1 = system: IGROV-1
M14 = system: M14
MOLT-4 = system: MOLT-4
NCI-H226 = system: NCI-H226
OVCAR-3 = system: OVCAR-3
OVCAR-5 = system: OVCAR-5
OVCAR-8 = system: OVCAR-8
RXF 393 = system: RXF 393
SF-539 = system: SF-539
SK-MEL-28 = system: SK-MEL-28
SNB-75 = system: SNB-75
SW-620 = system: SW-620
UACC-257 = system: UACC-257
UO-31 = system: UO-31
A498 = system: A498

Compound	GI50 (CAKI-1)	GI50 (HCC 2998)	GI50 (HL-60)	GI50 (IGROV-1)	GI50 (M14)	GI50 (MOLT-4)	GI50 (NCI-H226)	GI50 (OVCAR-3)	GI50 (OVCAR-5)	GI50 (OVCAR-8)	GI50 (RXF 393)	GI50 (SF-539)	GI50 (SK-MEL-28)	GI50 (SNB-75)	GI50 (SW-620)	GI50 (UACC-257)	GI50 (UO-31)	GI50 (A498)
NC(=O)c1ncn(CCN2CCN(C(=O)NCCCCCCNC(=O)N3CCN(CCn4cnc(C(N)=O)c4N)CC3)CC2)c1N	> 100 µM (inactive)	> 100 µM (inactive)	> 100 µM (inactive)	> 100 µM (inactive)	> 100 µM (inactive)	> 100 µM (inactive)	> 100 µM (inactive)	> 100 µM (inactive)	> 100 µM (inactive)	> 100 µM (inactive)	> 100 µM (inactive)	> 100 µM (inactive)	> 100 µM (inactive)	> 100 µM (inactive)	> 100 µM (inactive)	> 100 µM (inactive)	> 100 µM (inactive)	
CC1=C(C(=O)Nc2ccccc2)C(c2ccccc2Cl)C(C(=O)Nc2ccccc2)=C(C)N1	27.9 µM (inactive)	21.2 µM (inactive)	< 0.01 µM (active)	27.9 µM (inactive)	16.6 µM (inactive)	17.4 µM (inactive)	22.2 µM (inactive)	17.6 µM (inactive)	24.3 µM (inactive)	29.4 µM (inactive)		20 µM (inactive)	27.1 µM (inactive)	28.1 µM (inactive)	30.7 µM (inactive)	19.4 µM (inactive)	35.6 µM (inactive)	27.8 µM (inactive)
Cc1nc2c(=O)n(C)c(=O)nc-2n(-c2ccc(Cl)cc2)c1C	43.1 µM (inactive)	> 100 µM (inactive)	45.3 µM (inactive)	> 100 µM (inactive)	82.6 µM (inactive)		> 100 µM (inactive)	> 100 µM (inactive)	> 100 µM (inactive)	> 100 µM (inactive)		> 100 µM (inactive)	> 100 µM (inactive)	> 100 µM (inactive)	> 100 µM (inactive)	> 100 µM (inactive)	80.4 µM (inactive)	> 100 µM (inactive)
COc1ccc(C(N)=O)c(OC)c1OCc1ccccc1		> 100 µM (inactive)	> 100 µM (inactive)	> 100 µM (inactive)	> 100 µM (inactive)	> 100 µM (inactive)	> 100 µM (inactive)	> 100 µM (inactive)	> 100 µM (inactive)	> 100 µM (inactive)	0.15 µM (active)	> 100 µM (inactive)	> 100 µM (inactive)	> 100 µM (inactive)	> 100 µM (inactive)		> 100 µM (inactive)	> 100 µM (inactive)
O=C(O)c1cc2c(ncc3c(=O)n(-c4ccccc4)[nH]c32)s1	> 100 µM (inactive)	> 100 µM (inactive)		> 100 µM (inactive)	> 100 µM (inactive)	> 100 µM (inactive)	> 100 µM (inactive)	> 100 µM (inactive)	> 100 µM (inactive)	> 100 µM (inactive)	> 100 µM (inactive)	> 100 µM (inactive)	> 100 µM (inactive)		> 100 µM (inactive)		> 100 µM (inactive)	
C[Si](C)(C)[C@@]1([Se]c2ccccc2)CC[C@@H]1C(=O)c1ccccc1	72.1 µM (inactive)	32.6 µM (inactive)		> 100 µM (inactive)	80.4 µM (inactive)	21.3 µM (inactive)	40.2 µM (inactive)	84.1 µM (inactive)	> 100 µM (inactive)	50.5 µM (inactive)	19 µM (inactive)	62.7 µM (inactive)	55.2 µM (inactive)	61 µM (inactive)	53 µM (inactive)	40.6 µM (inactive)	32.3 µM (inactive)	> 100 µM (inactive)
CC(C)C[C@H](NC(=O)[C@H](CC(C)C)NC(=O)[C@@H](Cc1c[nH]c2ccccc12)NC(=O)[C@H](Cc1ccccc1)NC(=O)[C@@H](Cc1c[nH]c2ccccc12)NC(=O)[C@H](CCC(N)=O)NC(=O)[C@@H](CCC(N)=O)NC(=O)[C@@H]1CCCN1C(=O)[C@@H](CCCCN)NC(=O)[C@H]1CCCN1C(=O)[C@H](N)CCCN=C(N)N)C(N)=O (H-[dR][dP][dK]P[dQ]Q[dW]F[dW]LL-NH2)		> 100 µM (inactive)	> 100 µM (inactive)	> 100 µM (inactive)		> 27.4 µM (inactive)	> 100 µM (inactive)	> 86.3 µM (inactive)	> 100 µM (inactive)	> 100 µM (inactive)	> 100 µM (inactive)	> 61.4 µM (inactive)	> 100 µM (inactive)	> 100 µM (inactive)	> 100 µM (inactive)	> 48.3 µM (inactive)	> 100 µM (inactive)	32.3 µM (inactive)
CC1NC(=O)CNC(=O)CNC(=O)C(Cc2ccc(O)cc2)NC(=O)C(C(C)C)NC(=O)C(C)NC1=O (centres undefined) (cyclo(GGAAVY); configuration not given here)	> 100 µM (inactive)	> 100 µM (inactive)	> 100 µM (inactive)	> 100 µM (inactive)		> 100 µM (inactive)	> 100 µM (inactive)	> 100 µM (inactive)	> 100 µM (inactive)	> 100 µM (inactive)		> 100 µM (inactive)	> 100 µM (inactive)	> 100 µM (inactive)	> 100 µM (inactive)	> 100 µM (inactive)	> 100 µM (inactive)	> 100 µM (inactive)
